The NIST ThermoML archive (doi:10.1016/j.jct.2017.03.026)
“And” between values parts separate entries of the source, which are not always exact repeats. Identical values can stand only once. Numbers after ± are expanded uncertainties.

Assay: molar heat capacity at constant pressure
Conditions: 101.33 kPa, Crystal, Small (less than 1 g) adiabatic calorimetry

O.O.O.O.O.O=S(=O)([O-])[O-].[Cu+2] [copper(II) sulfate pentahydrate]
Conditions	molar heat capacity at constant pressure
195.86 K	210.72 ± 1.1 J/K/mol
196.02 K	208.8 ± 1.1 J/K/mol
196.2 K	210.85 ± 1.1 J/K/mol
196.62 K	212.01 ± 1.1 J/K/mol
196.78 K	210.59 ± 1.1 J/K/mol
196.97 K	211.56 ± 1.1 J/K/mol
197.34 K	208.77 ± 0.81 J/K/mol
197.52 K	212.45 ± 1.1 J/K/mol
197.54 K	211.37 ± 1.1 J/K/mol
197.92 K	209.01 ± 0.81 J/K/mol
198.12 K	212.62 ± 1.1 J/K/mol
198.28 K	211.94 ± 1.1 J/K/mol
198.86 K	213.01 ± 1.1 J/K/mol
199.03 K	212.84 ± 1.1 J/K/mol
199.23 K	213.44 ± 1.1 J/K/mol
199.77 K	213.38 ± 1.1 J/K/mol
199.89 K	214.1 ± 1.1 J/K/mol
200 K	210.9 ± 0.8 J/K/mol
200.02 K	210.29 ± 0.82 J/K/mol
200.18 K	214.5 ± 1.1 J/K/mol
200.35 K	215.02 ± 1.1 J/K/mol
200.44 K	211.49 ± 0.82 J/K/mol
200.5 K	214.14 ± 1.1 J/K/mol
201.23 K	214.77 ± 1.1 J/K/mol
201.49 K	215.23 ± 1.1 J/K/mol
201.51 K	215.2 ± 1.1 J/K/mol
201.96 K	215.31 ± 1.1 J/K/mol
202.12 K	212.11 ± 0.82 J/K/mol
202.61 K	217.02 ± 1.1 J/K/mol
202.68 K	216.55 ± 1.1 J/K/mol
202.83 K	216.31 ± 1.1 J/K/mol
203.14 K	217.49 ± 1.1 J/K/mol
203.42 K	216.87 ± 1.1 J/K/mol
203.52 K	214.16 ± 0.83 J/K/mol
203.74 K	217.35 ± 1.1 J/K/mol
204.14 K	217.62 ± 1.1 J/K/mol
204.2 K	218.19 ± 1.1 J/K/mol
204.22 K	214.4 ± 0.83 J/K/mol
204.87 K	218.11 ± 1.1 J/K/mol and 218.14 ± 1.1 J/K/mol
205.53 K	218.8 ± 1.1 J/K/mol
205.59 K	218.93 ± 1.1 J/K/mol
205.99 K	219.33 ± 1.1 J/K/mol
206.31 K	219.39 ± 1.1 J/K/mol
206.33 K	215.55 ± 0.83 J/K/mol
206.4 K	220.52 ± 1.1 J/K/mol
206.59 K	216.64 ± 0.83 J/K/mol
206.85 K	220.61 ± 1.1 J/K/mol
207.02 K	220.58 ± 1.1 J/K/mol
207.11 K	220.48 ± 1.1 J/K/mol
207.81 K	220.88 ± 1.1 J/K/mol
208.18 K	221.52 ± 1.1 J/K/mol
208.23 K	222.38 ± 1.1 J/K/mol
208.45 K	218.01 ± 0.83 J/K/mol
208.52 K	222.44 ± 1.1 J/K/mol
209.24 K	222.92 ± 1.1 J/K/mol
209.37 K	222.88 ± 1.1 J/K/mol
209.5 K	223.33 ± 1.1 J/K/mol
209.64 K	219.18 ± 0.84 J/K/mol
209.68 K	223.6 ± 1.1 J/K/mol
209.96 K	223.05 ± 1.1 J/K/mol
210 K	219.4 ± 0.9 J/K/mol
210.49 K	223.26 ± 1.1 J/K/mol
210.58 K	219.18 ± 0.84 J/K/mol
210.67 K	223.74 ± 1.1 J/K/mol
210.83 K	223.72 ± 1.1 J/K/mol
211.38 K	224.39 ± 1.1 J/K/mol
211.61 K	224.89 ± 1.1 J/K/mol
212.1 K	224.82 ± 1.1 J/K/mol
212.14 K	225.35 ± 1.1 J/K/mol
212.68 K	221.85 ± 0.85 J/K/mol
212.7 K	220.97 ± 0.84 J/K/mol
212.75 K	225.67 ± 1.1 J/K/mol
212.81 K	225.63 ± 1.1 J/K/mol
212.95 K	226.54 ± 1.1 J/K/mol
213.47 K	226.67 ± 1.1 J/K/mol
213.52 K	226.64 ± 1.1 J/K/mol
213.88 K	226.4 ± 1.1 J/K/mol
214.25 K	227.02 ± 1.1 J/K/mol
214.8 K	227.75 ± 1.2 J/K/mol
214.83 K	222.9 ± 0.85 J/K/mol
214.96 K	227.58 ± 1.2 J/K/mol
215 K	227.95 ± 1.1 J/K/mol
215.67 K	228.21 ± 1.1 J/K/mol
215.69 K	224.43 ± 0.86 J/K/mol
216.13 K	230.23 ± 1.1 J/K/mol
216.19 K	228.74 ± 1.1 J/K/mol
216.23 K	229.64 ± 1.1 J/K/mol
216.38 K	229.09 ± 1.1 J/K/mol
216.96 K	224.83 ± 0.86 J/K/mol
217.1 K	229.55 ± 1.1 J/K/mol
217.31 K	230.09 ± 1.1 J/K/mol
217.46 K	230.34 ± 1.1 J/K/mol
217.81 K	229.9 ± 1.1 J/K/mol
218.45 K	231.22 ± 1.2 J/K/mol
218.51 K	230.59 ± 1.1 J/K/mol
218.69 K	227.07 ± 0.86 J/K/mol
218.79 K	231.49 ± 1.2 J/K/mol
219.1 K	226.58 ± 0.86 J/K/mol
219.27 K	231.87 ± 1.2 J/K/mol
219.52 K	232.65 ± 1.2 J/K/mol
219.6 K	231.9 ± 1.2 J/K/mol
219.98 K	232.07 ± 1.2 J/K/mol
220 K	228 ± 0.9 J/K/mol
220.12 K	232.93 ± 1.2 J/K/mol
220.68 K	232.63 ± 1.2 J/K/mol
220.72 K	233.3 ± 1.2 J/K/mol
221.23 K	229.07 ± 0.87 J/K/mol
221.39 K	233.36 ± 1.2 J/K/mol
221.44 K	233.44 ± 1.2 J/K/mol
221.67 K	229.65 ± 0.87 J/K/mol
221.86 K	234.58 ± 1.2 J/K/mol
222.09 K	234.58 ± 1.2 J/K/mol
222.76 K	235.19 ± 1.2 J/K/mol
222.81 K	235.64 ± 1.2 J/K/mol and 235.01 ± 1.2 J/K/mol
223 K	235.73 ± 1.2 J/K/mol
223.42 K	230.15 ± 0.87 J/K/mol
223.51 K	235.25 ± 1.2 J/K/mol
224.08 K	236.48 ± 1.2 J/K/mol
224.14 K	236.55 ± 1.2 J/K/mol
224.22 K	235.98 ± 1.2 J/K/mol
224.64 K	232.13 ± 0.87 J/K/mol
224.92 K	236.68 ± 1.2 J/K/mol
225.28 K	237.03 ± 1.2 J/K/mol
225.45 K	237.85 ± 1.2 J/K/mol
225.57 K	231.89 ± 0.87 J/K/mol
225.62 K	237.74 ± 1.2 J/K/mol
226.1 K	239.21 ± 1.2 J/K/mol
226.33 K	238.26 ± 1.2 J/K/mol
226.41 K	238.72 ± 1.2 J/K/mol
226.77 K	238.57 ± 1.2 J/K/mol
227.03 K	238.58 ± 1.2 J/K/mol
227.55 K	239.68 ± 1.2 J/K/mol
227.61 K	234.56 ± 0.88 J/K/mol
227.72 K	233.69 ± 0.88 J/K/mol
227.73 K	239.34 ± 1.2 J/K/mol
228.08 K	239.61 ± 1.2 J/K/mol
228.43 K	239.99 ± 1.2 J/K/mol
228.69 K	240.1 ± 1.2 J/K/mol
229.13 K	241.13 ± 1.2 J/K/mol
229.38 K	242.74 ± 1.2 J/K/mol and 240.91 ± 1.2 J/K/mol
229.82 K	241.69 ± 1.2 J/K/mol
229.84 K	241.43 ± 1.2 J/K/mol
229.87 K	235.54 ± 0.88 J/K/mol
230 K	236.5 ± 0.9 J/K/mol
230.54 K	237.24 ± 0.89 J/K/mol
230.59 K	242.26 ± 1.2 J/K/mol
230.69 K	242.63 ± 1.2 J/K/mol
230.95 K	243.17 ± 1.2 J/K/mol
231.28 K	242.67 ± 1.2 J/K/mol
231.97 K	243.3 ± 1.2 J/K/mol
232 K	244.22 ± 1.2 J/K/mol
232.02 K	238.28 ± 0.89 J/K/mol
232.09 K	244.43 ± 1.2 J/K/mol
232.67 K	243.85 ± 1.2 J/K/mol
232.75 K	246.09 ± 1.2 J/K/mol
233.23 K	245.48 ± 1.2 J/K/mol
233.31 K	244.86 ± 1.2 J/K/mol
233.36 K	244.3 ± 1.2 J/K/mol
